Data reported in patent US6610687B1, “Benzofuranylsulfonates” (Bayer Aktiengesellschaft, priority 1999, dated 2003).

Columns and labels:
human PMN (neutrophils) = assay: Inhibition of FMLP-stimulated production of superoxide radical anions; assay type: cell-based; conditions: Neutrophil, read-out: IC50 O2^−
Description: 1. Preparation of Human PMN
Blood was taken from healthy subjects by venous puncture and neutrophils were purified by dextran sedimentation and resuspended in the buffered medium.
2. Inhibition of FMLP-stimulated Production of Superoxide Racidal Anions.
Neutrophils (2.5×10^5 ml^−1) were mixed with cytochrome C (1.2 mg/ml) in the wells of a microtitre plate. Compounds according to the invention were added in dimethyl sulphoxide (DMSO). Compound concentration ranged from 2.5 nM to 10 μM, the DMSO concentration was 0.1% v/v in all wells. After addition of cytochalasin b (5 μg×ml^−1) the plate was incubated for 5 min at 37° C. Neutrophils were then stimulated by addition of 4×10^−8 M FMLP and superoxide generation measured as superoxide dismutase inhibitable reduction of cytochrome C by monitoring the OD550 in a microtitre plate spectrophotometer, e.g. a thermomax microtitre plate spectrophotometer. Initial rates were calculated using a kinetic calculation programme such as a softmax programme. Blank wells contained 200 units of superoxide dismutase.
The inhibition of superoxide production was calculated as follows: [formula]
Rx=Rate of the well containing the compound according to the invention.
Ro=Rate in the control well.
Rb=Rate in the superoxide dismutase containing blank well.

[1] = target: PMN phosphodiesterase (PDE IV); assay: Assay of PMN phosphodiesterase; assay type: biochemical; conditions: particulate fraction from human PMN, treated with sodium vanadate/glutathione
Description: 4. Assay of PMN Phosphodiesterase
This was performed as a particulate fraction from human PMN essentially as described by Souness and Scott (Biochem. J. 291, 389-395, 1993). Particulate fractions were treated with sodium vanadate/glutathione as described by the authors to express the descrete stereospecific site on the phosphodiesterase enzyme.

Structure (SMILES)	IC50 (human PMN (neutrophils)) [nM]	IC50 [1] [nM]
Cc1nn(C)c(Cl)c1S(=O)(=O)Oc1ccc2c(NC(N)=O)c(C(=O)c3ccc(F)cc3F)oc2c1 [Example 24]	60	130
CC(=O)Nc1ccc(S(=O)(=O)Oc2ccc3c(NC(N)=O)c(C(=O)c4ccc(Cl)cc4)oc3c2)cc1 [Example 13]	65	21
CN(C)S(=O)(=O)Oc1ccc2c(NC(N)=O)c(C(=O)c3cc(Cl)ccc3Cl)oc2c1 [Example 46]	35	6
NC(=O)Nc1c(C(=O)c2ccc(Cl)cc2Cl)oc2cc(OS(=O)(=O)Cc3ccc(Cl)nc3)ccc12 [Example 47]	20	33

Next, values leading:

IC50 (human PMN (neutrophils)) [nM]	IC50 [1] [nM]	Structure (SMILES)
7	1	Cc1ccc(C(=O)c2oc3cc(OS(=O)(=O)c4cn(C)cn4)ccc3c2NC(N)=O)c(C)c1 [Example 36]
20	40	NC(=O)Nc1c(C(=O)c2ccc(Cl)cc2Cl)oc2cc(OS(=O)(=O)c3ccc(-c4ccccn4)s3)ccc12 [Example 21]
1	1	NC(=O)Nc1c(C(=O)c2ccc(Cl)cc2Cl)oc2cc(OS(=O)(=O)c3cccc4cccnc34)ccc12 [Example 49]
